“Also recorded” adds a separate entry of the source.
What was measured:
[1] = biological target: Helix Pomatia lectin (HPA) (Helix pomatia, UniProt Q2F1K8); assay: Direct binding ELISA, competitive inhibition, Helix Pomatia lectin control; settings: read-out: Concentration required for 50% inhibition (IC50), HPA; control plant lectin
Text: Glycopeptides were purified by C-18 reverse phase HPLC. Peptides were custom synthesized by Neosystems (Strasbourg). Biotinylated Helix Pomatia lectin (HPA) was from KemEnTec (Denmark). Anti-MUC1 HMFG2 monoclonal antibody was a generous gift from Joyce Taylor-Papadimitriou. Anti-MUC1 SE5 monoclonal antibody was developed by immunizing Balb/c mice with 60-mer MUC1 tandem repeat peptide glycosylated with 5 moles GalNAc per repeat. Monoclonal antibodies to the lectin domains of human GalNAc-T2 and -T4 were developed as previously described^8, 63.
(§1) Direct binding ELISA assay was developed as follows: Polystyrene microtiter plates (Maxisorb, Nunc, Denmark) were coated with peptides or enzymatically glycosylated glycopeptides in PBS overnight at 4° C. Plates were washed and blocked with 0.1% Tween20 and 0.2% BSA in PBS for 1 h at room temperature, followed by incubation with biotinylated proteins in PBS with 0.05% Tween20 for 2 h at room temperature. After four washes with PBS, plates were incubated with 1:2,000 dilution streptavidin-HRP (Sigma) in PBS for 30 min at room temperature and washed four times with PBS. Development was performed with 0.5 mg/ml o-phenylenediamine and 0.02% H2O2 at room temperature for 15 min, and reaction stopped by adding 100 μl/well of 0.5 N H2SO4. Competitive inhibition assays were done at end-point titers of GalNAc-transferase proteins with one hour preincubations with inhibitor.
Inhibition experiments were used to further define the binding specificity of GalNAc-T2 and -T4 secreted soluble enzymes as well as lectin domains compared to Helix Pomatia lectin (Table VII).

[2] = tested on: CHOldlD/MUC1F-clone2 cells; assay: Cell surface expression of MUC1 by immunocytology; format: cell-based, Chinese Hamster; settings: 1 mM; cells grown in GalNAc; FIG. 13
Method: We therefore investigated the effect of treatment with GalNAcα-benzyl of CHOldlD/MUC1F-clone2 cells grown in the presence of GalNAc. CHOldlD/MUC1F-clone2 cells were seeded in 6 well plates at a density of 0.2×10^6 per well and were grown for 6 hours in Hams F12 medium with serum until approximately 30% subconfluent. […] After 18 hours, the medium was replaced with fresh Optimem containing the sugars and benzyl derivatives as above and grown for 12-48 hours. Initially we analyzed surface expression of MUC1 by immunocytology. Cells were washed once in PBS-CMF (phosphate buffered saline Calcium and Magnesium free) after carefully removing the medium from the wells and subsequently fixed in 2 ml 3% paraformaldehyde at 25° C. for 20 min followed by three washes with PBS-CMF 3 times. Free aldehyde groups were quenched by incubating in 2 mL 50 mM Ammonium Chloride in PBS-CMF for 10 min, followed by three washes with PBS-CMF and three washes with 5 min incubations each with PBS-CMF containing 0.2% Fish Skin Gelatin (Sigma). Immunostaining of cells was performed by incubation with monoclonal antibodies for 40 min at 25° C., followed by three washes with PBS-CMF and three washes of 5 min each with PBS-CMF containing 0.2% Fish Skin Gelatin. […]

[3] = tested on: CHOldlD/MUC1F-clone2 cells; assay: MUC1 expression in cell lysates, immunoprecipitation and SDS-PAGE western blot; format: cell-based, Chinese Hamster; settings: 2 mM
Method: We next analysed the expression of MUC1 produced by CHOldlD/MUC1F-clone2 cells by SDS-PAGE western analysis. […] Cells were further treated with 2 mM GalNAcα-benzyl, GlcNAcα-benzyl or no inhibitor. Cells were washed and lysed at 24 or 48 hours and the lysates subjected to immunoprecipitation with monoclonal antibody HMFG2, which broadly recognize MUC1 glycoforms. Immunoprecipitates were analysed by SDS-PAGE and western blot using HMFG2 antibody to detect MUC1 expression. […] In striking contrast, treatment with GalNAcα-benzyl had significant effect after 48 hours. […] This indicates some heterogeneity in glycosylation.
As shown in Examples 8 and 9, polypeptide GalNAc-transferases contain lectin domains with binding properties for GalNAc-peptides including GalNAc-MUC1 peptides. […] GalNAcβ-benzyl, the β-anomeric configuration of GalNAc-benzyl (there is a β linkage between the N-acetylgalactosamine and the benzyl ring), was custom synthesized by Alberta Research Council (Canada), and its structure was confirmed by mass spectrometry and ^1H-NMR. […] Cells were then treated with 2 mM GalNAcα-benzyl, GalNAcβ-benzyl, or GlcNAcα-benzyl as control (GlcNAcα-benzyl was shown in Example 10 to have no effect). Cells were washed and lysed as described above after 36 hours and the lysates subjected to immunoprecipitation with anti-MUC1 monoclonal antibodies HMFG2 or 5E5. […] FIG. 17 illustrates the same experiments as in FIG. 16 except that the detection antibody is 5E5 and only Tn and STn MUC1 glycoforms are visualised.

[4] = tested on: CHOldlD/MUC1F-clone2 cells; assay: as above; format: cell-based, Chinese Hamster; settings: 2 mM, 48 hours
[5] = biological target: T1, GalNAc-T2 lectin domain (T2ld) (Homo sapiens, UniProt Q10471); assay: Direct binding ELISA to GalNAc-MUC1 glycopeptide, competitive inhibition, T2ld
T1 construct: made in house; host or cells: High Five insect cells (baculovirus, pAcGP67-A)
T1 sequence (Q10471 408-571): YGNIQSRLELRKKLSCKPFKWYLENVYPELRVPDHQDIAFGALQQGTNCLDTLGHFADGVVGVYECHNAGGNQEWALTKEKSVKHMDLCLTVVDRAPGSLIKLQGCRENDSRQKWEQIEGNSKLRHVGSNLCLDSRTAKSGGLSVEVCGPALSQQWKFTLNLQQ
Method: (§2) Protein biotinylation was made as previously reported^62. The pH of 1 ml purified protein (0.3 mg/ml) in PBS was adjusted to pH 9 with 1 M NaOH and 40 μl N-hydroxy-succinimidobiotin (Sigma) dissolved in DMF (10 mg/ml) was added. The solution was mixed end-over-end for 2 hours at room temperature, and dialyzed three times against PBS and an equal volume of glycerol was added. The biotinylated proteins were stored at −20° C. in 50% glycerol until use.
as §1
(§3) In binding studies using lectins without biotinylation antibodies to the HIS-tag and the T7-tag, or in some experiments antibodies raised to GalNAc-T2 and -T4 enzymes were used to detect binding.

[6] = biological target: T2, secreted soluble GalNAc-T4 (sT4) (Homo sapiens, UniProt Q8N4A0); assay: Direct binding ELISA to GalNAc-MUC1 glycopeptide, competitive inhibition, sT4
T2 construct: using the GalNAc-T4-sol construct that encodes residues 32-578 inserted into pT7T3U19; 6xHis (N); thrombin cleavage site (N); T7 tag (N); made in house; host or cells: High Five insect cells (baculovirus)
Method: as §2, §1, §3

[7] = 48 hours, IP HMFG2, blot HMFG2, grown in GalNAc or Gal and GalNAc

| SMILES | IC50 [1] | Cell surface expression of MUC1 [2] | MUC1 expression ([3]; 24 hours, IP HMFG2, blot HMFG2) | MUC1 expression ([3]; 36 hours, blot 5E5, cells grown in GalNAc) | MUC1 expression [3, 7] | SDS-PAGE migration of MUC1 (O-glycosylation) ([3]; 48 hours, cells grown in Gal and GalNAc, blot HMFG2) | MUC1 expression ([4]; IP HMFG2, blot 5E5) | SDS-PAGE migration of MUC1 (O-glycosylation) ([4]; cells grown in Gal and GalNAc, blot 5E5) | IC50 [5] | Inhibition of GalNAc-T4 lectin binding ([6]; FIG. 7, ELISA plates with GalNAc-Muc1) | IC50 ([6]; binding to GalNAc-MUC1 glycopeptide) |
| --- | --- | --- | --- | --- | --- | --- | --- | --- | --- | --- | --- |
| CC(=O)N[C@H]1[C@@H](OCc2ccccc2)O[C@H](CO)[C@H](O)[C@@H]1O [GalNAcα-benzyl] | 500 µM | strong inhibition | no significant effect | strong inhibition | significant reduction in MUC1 expression | significant shift in migration | significant reduction in MUC1 expression | marked shift in migration |  |  |  |
| CC(=O)N[C@H]1[C@@H](OCc2ccccc2)O[C@H](CO)[C@@H](O)[C@@H]1O [GlcNAcα-benzyl] | 2000 µM | no inhibition |  |  | produced the same glycoforms at similar intensity as cells without treatment; also recorded: no effect |  |  |  | > 100000 µM | no inhibition | > 100000 µM |

— patent US7338932B2, “Methods of modulating functions of polypeptide GalNAc-transferases and of screening test substances to find agents herefor, pharmaceutical compositions comprising such agents and the use of such agents for preparing medicaments” (Glycozym APS, priority 2000, dated 2008)
